Experimental data from patent US20090234122A1, “CYANINE DYE AND OPTICAL RECORDING MEDIUM” (priority 2005, published 2009).

Tests used:
Type in all cases: physicochemical
[1] = Decomposition point on DSC analysis; settings: onset temperature of exothermic peak induced by decomposition
Description: The decomposition points of organic dye compounds such as cyanine dyes can be determined on, for example, commonly used differential scanning calorimetric analysis (abbreviated as “DSC”, hereinafter).
The melting point means a peak top temperature of endothermic peak during temperature increase on DSC analysis, while the decomposition point means an onset temperature of exothermic peak induced by decomposition during temperature increase on DSC analysis. These are applicable to the following measurements.

[2] = Lightfastness of cyanine dye thin membranes under xenon lamp irradiation; settings: thin membrane on glass, 180 W/m^2, 5.5 hours
Method: The solution was in conventional manner dropped to homogeneity over the surface of either side of a polished glass substrate, 5 cm×5 cm, followed by rotating the glass substrate at a rate of 1,000 rpm/min for one minute to homogeneously apply the solution over the substrate and then drying the substrate by blowing hot air or cold air in this order to form a thin membrane of any one of the cyanine dyes of the present invention.
The cyanine dyes were measured for transmittance (T0) at the wavelengths of their absorption maxima (about 450 nm), while a 7.5 W xenon lamp was fixed apart from the glass substrate at a prescribed intervals and irradiated therewith (irradiated energy of 180 W/m^2 when measured on the surface of the substrate) for 5.5 hours while blowing cold air to the substrate. Thereafter, the substrates were immediately measured for transmittance (T) at the wavelengths of absorption maxima of the cyanine dyes and the residual percentages (%) thereof were calculated by assigning the obtained transmittances T and T0 the equation 1. In parallel, similarly as in the above, thin membranes, as controls 1 to 4, formed with any one of the compounds represented by Chemical Formulae 33, 37, 40 and 41; thin membranes, as controls 5 to 8, formed with any one of the compounds represented by Chemical Formulae 33, 37, 40 and 41 in combination with the azo metal complex presented by Chemical Formula 34 as a light resistant improver; and thin membranes, as controls 9 to 10, formed with any one of the compounds represented by Chemical Formulae 42 and 43, and these thin membranes were similarly treated as in the above, and measured for transmittances T and T0 at wavelengths of their absorption maxima for use as controls.

[3] = Solubility in organic solvents at 20° C.; settings: N,N-dimethylformamide, methanol, TFP, methylethylketone, acetonitrile, chloroform
[4] = transmittance at absorption maximum (about 450 nm), lightfastness improver: Non
[5] = in combination with lightfastness improver Chemical Formula 34 (azo metal complex)

CN1C(=CC2=[N+](C)c3ccccc3C2(C)Cc2ccccc2)C(C)(C)c2ccccc21 (stereo not shown) [Chemical Formula 20]
decomposition point [1]: ~273 °C
Residual percentage (%) of dye [2, 4]: 99.1%
solubility in organic solvents [3]: satisfactory solubilities with no actual hindrance

CCN1C(=CC2=[N+](CC)c3ccccc3C2(C)Cc2ccccc2)C(C)(Cc2ccccc2)c2ccccc21 (stereo not shown) [Chemical Formula 33]
decomposition point [1]: around 212 °C
Residual percentage (%) of dye [2, 5]: 89.9%
Residual percentage (%) of dye [2, 4]: 29.4%

CN1C(=CC2=[N+](C)c3ccccc3C2(C)Cc2ccccc2)C(C)(C)c2ccccc21 (stereo not shown) [Chemical Formula 37]
decomposition point [1]: around 238 °C
Residual percentage (%) of dye [2, 5]: 90.3%
Residual percentage (%) of dye [2, 4]: 31.2%

CN1C(=CC2=[N+](C)c3ccccc3C23CCCCC3)C2(CCCCC2)c2ccccc21 [Chemical Formula 40]
decomposition point [1]: around 227 °C
Residual percentage (%) of dye [2, 5]: 91.5%
Residual percentage (%) of dye [2, 4]: 35.6%

CN1C(=CC2=[N+](C)c3ccccc3C23CCCCC3)C(C)(C)c2ccccc21 [Chemical Formula 41]
decomposition point [1]: around 240 °C
Residual percentage (%) of dye [2, 5]: 93.8%
Residual percentage (%) of dye [2, 4]: 33.8%

CN1C(=CC2=[N+](C)c3ccccc3C2(C)C)C(C)(C)c2ccccc21 [Chemical Formula 42]
Residual percentage (%) of dye [2, 4]: 15.3%
